Reference: patent publication US20260034044A1, “A PRESERVATIVE COMPOSITION” (AnalytiCon Discovery - Zweigniederlassung der BRAIN Biotech …, priority 2022, published 2026)
Values after ≈ are worked out from the molar mass of the structure shown.

Columns and labels:
Format in all cases: cell-based
[1] = system: Penicillium expansum DSM 62841; assay: Antimicrobial activity (MIC); settings: DSM62841, potato dextrose broth pH 3.8, visual evaluation, read-out: Minimal Inhibitory Concentration (MIC)
[2] = system: Streptococcus mutans DSM 20523; assay: Antimicrobial activity (MIC); settings: DSM20523, potato dextrose broth pH 3.8, visual evaluation, read-out: Minimal Inhibitory Concentration (MIC)
[3] = system: Clostridium sporogenes ATCC 19404; assay: Antimicrobial activity (MIC); settings: ATCC19404, potato dextrose broth pH 3.8, visual evaluation, read-out: Minimal Inhibitory Concentration (MIC)
Protocol: Compounds are dissolved at a concentration of 20 mg/ml using 100% DMSO. • Preculture: yeast and bacteria are plated on potato dextrose agar, resuspended in potato dextrose broth and CFU via OD measurement determined; adjusting CFU of the strain in PDB pH 3.8. • Preculture: for mycel forming fungi spores were directly used after thawing of cryopreserved stocks of known titre. • Final titre used for the assay: Yeast strains 5*10^3 CFU/ml, Bacteria 1*10^6 CFU/ml, Fungi (spores) 5*10^4 CFU/ml • Potato dextrose broth pH 3.8 was used as assay matrix • 500 ppm (0.05%) of the compounds were screened (final DMSO 2.5% (v/v)) • Volume: 100 μl in 96-well format • Positive controls: potassium sorbate, sodium benzoate & triclosan • 28° C. to 30° C., static incubation • Incubation time depending on spoilage organism between 2 and 8 days • Visual evaluation (per eye, for fungi with binocular magnification) Antimicrobial activities are reported in Table 1.

[4] = system: Aspergillus brasiliensis DSM 1988; assay: Antimicrobial activity (MIC); settings: DSM1988, potato dextrose broth pH 3.8, visual evaluation, read-out: Minimal Inhibitory Concentration (MIC)
[5] = system: Leuconostoc mesenteroides ssp. mesenteroides DSM 20343; assay: Antimicrobial activity (MIC); settings: DSM20343, potato dextrose broth pH 3.8, visual evaluation, read-out: Minimal Inhibitory Concentration (MIC)
[6] = system: Gluconacetobacter liquefaciens DSM 5603; assay: Antimicrobial activity (MIC); settings: DSM5603, potato dextrose broth pH 3.8, visual evaluation, read-out: Minimal Inhibitory Concentration (MIC)
[7] = system: Saccharomyces cerevisiae DSM 2548; assay: Antimicrobial activity (MIC); settings: DSM2548, potato dextrose broth pH 3.8, visual evaluation, read-out: Minimal Inhibitory Concentration (MIC)
[8] = system: Clostridium perfringens DSM 756; assay: microbe, parasite or virus in culture; settings: DSM756, pH 3.8, read-out: Minimal Inhibitory Concentration (MIC)
[9] = system: Actinomyces viscosus DSM43798; assay: Antimicrobial activity (MIC); settings: potato dextrose broth pH 3.8, visual evaluation, read-out: Minimal Inhibitory Concentration (MIC)
[10] = system: Corynebacterium xerosis DSM 20743; assay: Antimicrobial activity (MIC); settings: DSM20743, potato dextrose broth pH 3.8, visual evaluation, read-out: Minimal Inhibitory Concentration (MIC)
[11] = system: Alicyclobacillus acidoterrestris DSM 2498; assay: Antimicrobial activity (MIC); settings: DSM2498, potato dextrose broth pH 3.8, visual evaluation, read-out: Minimal Inhibitory Concentration (MIC)
[12] = system: Botrytis cinerea DSM 5145; assay: Antimicrobial activity (MIC); settings: DSM5145, potato dextrose broth pH 3.8, visual evaluation, read-out: Minimal Inhibitory Concentration (MIC)
[13] = system: Pasteurella multocida ssp. multocida DSM 16031; assay: Antimicrobial activity (MIC); settings: DSM16031, potato dextrose broth pH 3.8, visual evaluation, read-out: Minimal Inhibitory Concentration (MIC)
[14] = system: Lactobacillus paracasei ssp. paracasei DSM 46331; assay: Antimicrobial activity (MIC); settings: Lacticaseibacillus paracasei, DSM46331, potato dextrose broth pH 3.8, visual evaluation, read-out: Minimal Inhibitory Concentration (MIC)
[15] = system: Staphylococcus aureus DSM 2569; assay: Antimicrobial activity (MIC); settings: DSM2569, potato dextrose broth pH 3.8, visual evaluation, read-out: Minimal Inhibitory Concentration (MIC)
[16] = system: Campylobacter jejuni DSM 4688; assay: Antimicrobial activity (MIC); settings: DSM4688, potato dextrose broth pH 3.8, visual evaluation, read-out: Minimal Inhibitory Concentration (MIC)
[17] = system: Yarrowia lipolytica DSM 70561; assay: Antimicrobial activity (MIC); settings: DSM70561, potato dextrose broth pH 3.8, visual evaluation, read-out: Minimal Inhibitory Concentration (MIC)
[18] = system: Enterococcus faecalis ATCC 7080; assay: Antimicrobial activity (MIC); settings: ATCC7080, potato dextrose broth pH 3.8, visual evaluation, read-out: Minimal Inhibitory Concentration (MIC)
[19] = system: Bacillus cereus DSM4490; assay: Antimicrobial activity (MIC); settings: potato dextrose broth pH 3.8, visual evaluation, read-out: Minimal Inhibitory Concentration (MIC)
[20] = system: Candida parapsilosis ATCC 20384; assay: Antimicrobial activity (MIC); settings: Lodderomyces parapsilosis, ATCC20384, potato dextrose broth pH 3.8, visual evaluation, read-out: Minimal Inhibitory Concentration (MIC)
[21] = system: Byssochlamys fulva DSM 1808; assay: Antimicrobial activity (MIC); settings: Paecilomyces fulvus, DSM1808, potato dextrose broth pH 3.8, visual evaluation, read-out: Minimal Inhibitory Concentration (MIC)
[22] = system: Pseudomonas aeruginosa DSM 1117; assay: Antimicrobial activity (MIC); settings: DSM1117, potato dextrose broth pH 3.8, visual evaluation, read-out: Minimal Inhibitory Concentration (MIC)
[23] = system: Zygosaccharomyces bailii DSM 70834; assay: Antimicrobial activity (MIC); settings: DSM70834, potato dextrose broth pH 3.8, visual evaluation, read-out: Minimal Inhibitory Concentration (MIC)
[24] = system: Enterobacter cloacae DSM 6234; assay: Antimicrobial activity (MIC); settings: DSM6234, potato dextrose broth pH 3.8, visual evaluation, read-out: Minimal Inhibitory Concentration (MIC)
[25] = system: Pseudomonas fluorescens DSM50337; assay: Antimicrobial activity (MIC); settings: potato dextrose broth pH 3.8, visual evaluation, read-out: Minimal Inhibitory Concentration (MIC)

SMILES | MIC [1] | MIC [2] | MIC [3] | MIC [4] | MIC [5] | MIC [6] | MIC [7] | MIC [8] | MIC [9] | MIC [10] | MIC [11] | MIC [12] | MIC [13] | MIC [14] | MIC [15] | MIC [16] | MIC [17] | MIC [18] | MIC [19] | MIC [20] | also measured
C[C@H]1CC[C@@]2(OC1)O[C@H]1CC3C4CC[C@H]5C[C@@H](O[C@@H]6O[C@H](CO)[C@H](O[C@@H]7O[C@H](CO)[C@@H](O)[C@H](O[C@@H]8OC[C@@H](O)[C@H](O)[C@H]8O)[C@H]7O[C@@H]7O[C@H](CO)[C@@H](O)[C@H](O)[C@H]7O)[C@H](O)[C@H]6O)[C@H](O)C[C@]5(C)C4=CC(=O)[C@]3(C)[C@H]1[C@@H]2C (stereo partly shown) [A] | > 500 µg/mL | > 80 µg/mL | 80 µg/mL (≈ 75.2 µM) | > 80 µg/mL | > 80 µg/mL | 140 µg/mL (≈ 132 µM) | > 80 µg/mL | > 80 µg/mL | > 80 µg/mL | > 80 µg/mL | 40 µg/mL (≈ 37.6 µM) | > 80 µg/mL | > 80 µg/mL | > 80 µg/mL | > 80 µg/mL | > 80 µg/mL | > 80 µg/mL | > 80 µg/mL | > 80 µg/mL | > 80 µg/mL | MIC [21]: > 80 µg/mL; MIC [22]: > 80 µg/mL; MIC [23]: > 80 µg/mL; MIC [24]: > 80 µg/mL; MIC [25]: > 80 µg/mL
C[C@@H]1CC[C@@]2(OC1)O[C@H]1CC3C4CC=C5CC(O[C@@H]6O[C@H](CO)[C@@H](O[C@@H]7O[C@@H](C)[C@H](O[C@@H]8O[C@@H](C)[C@H](O)[C@@H](O)[C@H]8O)[C@@H](O)[C@H]7O)[C@H](O)[C@H]6O[C@@H]6O[C@@H](C)[C@H](O)[C@@H](O)[C@H]6O)CC[C@]5(C)C4CC[C@]3(C)[C@@]1(O)[C@@H]2C (stereo partly shown) [B] | > 500 µg/mL | > 80 µg/mL | 80 µg/mL (≈ 77.6 µM) | > 80 µg/mL | > 80 µg/mL | 40 µg/mL (≈ 38.8 µM) | > 80 µg/mL | > 80 µg/mL | > 80 µg/mL | > 80 µg/mL | 140 µg/mL (≈ 136 µM) | > 80 µg/mL | > 80 µg/mL | > 80 µg/mL | > 80 µg/mL | > 80 µg/mL | > 80 µg/mL | > 80 µg/mL | > 80 µg/mL | > 80 µg/mL | MIC [21]: > 80 µg/mL; MIC [22]: > 80 µg/mL; MIC [23]: > 80 µg/mL; MIC [24]: > 80 µg/mL; MIC [25]: > 80 µg/mL
CC1CC[C@@]2(OC1)O[C@H]1CC3C4CC=C5C[C@@H](O[C@@H]6O[C@H](CO)[C@@H](O[C@@H]7O[C@@H](C)[C@H](O)[C@@H](O)[C@H]7O)[C@H](O)[C@H]6O[C@@H]6O[C@@H](C)[C@H](O)[C@@H](O)[C@H]6O)CC[C@]5(C)C4CC[C@]3(C)[C@@]1(O)[C@@H]2C (stereo partly shown) [C] | > 500 µg/mL | > 80 µg/mL | 80 µg/mL (≈ 90.4 µM) | > 80 µg/mL | > 80 µg/mL | 40 µg/mL (≈ 45.2 µM) | > 80 µg/mL | > 80 µg/mL | > 80 µg/mL | > 80 µg/mL | 80 µg/mL (≈ 90.4 µM) | > 80 µg/mL | > 80 µg/mL | > 80 µg/mL | > 80 µg/mL | > 80 µg/mL | > 80 µg/mL | > 80 µg/mL | > 80 µg/mL | > 80 µg/mL | MIC [21]: > 80 µg/mL; MIC [22]: > 80 µg/mL; MIC [23]: > 80 µg/mL; MIC [24]: > 80 µg/mL; MIC [25]: > 80 µg/mL
C[C@H]1CC[C@@]2(OC1)O[C@H]1CC3C4CC[C@H]5C[C@@H](O[C@@H]6O[C@H](CO)[C@H](O[C@@H]7O[C@H](CO)[C@@H](O)[C@H](O)[C@H]7O[C@@H]7O[C@H](CO)[C@@H](O)[C@H](O)[C@H]7O)[C@H](O)[C@H]6O)[C@H](O)C[C@]5(C)C4=CC(=O)[C@]3(C)[C@H]1[C@@H]2C (stereo partly shown) [D] | > 500 µg/mL | > 80 µg/mL | 80 µg/mL (≈ 85.9 µM) | > 80 µg/mL | > 80 µg/mL | 140 µg/mL (≈ 150 µM) | > 80 µg/mL | > 80 µg/mL | > 80 µg/mL | > 80 µg/mL | 40 µg/mL (≈ 43 µM) | > 80 µg/mL | > 80 µg/mL | > 80 µg/mL | > 80 µg/mL | > 80 µg/mL | > 80 µg/mL | > 80 µg/mL | > 80 µg/mL | > 80 µg/mL | MIC [21]: > 80 µg/mL; MIC [22]: > 80 µg/mL; MIC [23]: > 80 µg/mL; MIC [24]: > 80 µg/mL; MIC [25]: > 80 µg/mL
